Test system: HMG-CoA reductase
Assay: in vitro HMG-CoA reductase inhibition (protocol of J. Med. Chem., 1985, 28, page 347)
Type: biochemical
Details: percent of the activity exhibited by mevinolin in the same protocol
Method: The intrinsic HMG-CoA reductase inhibition activity of the claimed compounds is measured in the in vitro protocol described is J. Med. Chem., 1985, 28, page 347.

relative inhibitory activity: 50%
Structure (SMILES): C=C1C=C2C=C[C@H](C)[C@H](CC[C@@H](O)C[C@@H](O)CC(=O)O)C2[C@@H](OC(=O)C(C)CC)C1 (stereo partly shown)

Reference: patent US4885314A, “Novel HMG-CoA reductase inhibitors” (Merck & Co., Inc., priority 1988, dated 1989)
